Data reported in patent publication US20100021599A1, “PRESERVATIVE” (LANXESS DEUTSCHLAND GMBH, priority 2006, published 2010).
Like-named read-outs stand apart in the source and are kept apart here.

Tested on: Paecilomyces variotii
Details: single substance alone, fruit-component drink inoculated with conidia, incubated two weeks at 27° C.
Procedure: A drink which contains fruit components was admixed with various concentrations of citric acid and subsequently inoculated with conidia of the fungus Paecilomyces variotii. Subsequently, the inoculated drinks samples were treated with various DMDC concentrations and incubated for two weeks at 27° C.

Compound	MHC	MHC (listed as citric acid)
O=C(O)CC(O)(CC(=O)O)C(=O)O [Citric acid, citric acid]	>30 000 ppm	> 30 000 ppm
COC(=O)OC(=O)OC [DMDC, dimethyl dicarbonate]	>250 ppm	–
